Patent US20230293526A1, “METHOD FOR TREATING CANCER WITH A REVERSE TRANSCRIPTASE INHIBITOR” (PrimeFour Therapeutics, Inc., priority 2020, published 2023)

Legend:
[1] = system: human LINE-1; experiment: Human LINE-1 (L1) retrotransposition dual-luciferase reporter assay in HeLa cells; format: cell-based; settings: Homo sapiens, HeLa, 72 h, read-out: Human LINE-1 IC50 (Human L1 activity inhibition)
In short: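 Compound dilution series (final DMSO 0.2%) added right after transfecting HeLa cells with the pYX017 L1 dual-luciferase reporter; 72 h culture at 37 °C, 5% CO2, triplicates. IC50 fitted by non-linear logistic regression to firefly-to-Renilla luminescence ratio (×10,000).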

[2] = system: cancer cell lines; experiment: Cancer cell proliferation activity of representative nucleosides, CellTiterGlo 72 h (Example 7, Tables 8 and 9); format: cell-based; settings: 72 h
In short: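 Percent viability was set against 0.1% DMSO (100%) and 10 μM staurosporine (0%), with signal from CellTiterGlo luminescence. Dose-response treatment began one day after seeding and lasted 72 h at 37° C under 5% or 10% CO2, with 0.1% final DMSO.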

How did the IC50 [1] turn out when `C#C[C@]1(CO)O[C@@H](n2cnc3c(=O)[nH]c(N)nc32)C[C@@H]1O` [compound 13] was run?
The IC50 was 0.51 nM.

And the IC50 ([2]; 72 h, 5637, bladder)?
The IC50 was 2270 nM.

What about the IC50 ([2]; CLS439, bladder) of the same compound?
The IC50 was > 50000 nM.

And the IC50 ([2]; HS729, muscle)?
Its IC50 is 1510 nM.

What about the IC50 ([2]; J82, bladder) of the same compound?
The IC50 was 1970 nM.

What about the IC50 ([2]; JAR, placenta) of the same compound?
Its IC50 is > 50000 nM.

And the IC50 ([2]; MT3, breast)?
The IC50 was 370 nM.

What about the IC50 ([2]; PC3, prostate) of the same compound?
The IC50 was 1800 nM.

And the IC50 ([2]; RD, muscle)?
The IC50 was > 50000 nM.

And the IC50 ([2]; T24, bladder)?
Its IC50 is 4540 nM.

And the IC50 ([2]; Homo sapiens, 22Rv1, 72 h, 22RV1, prostate)?
Its IC50 is 2220 nM.

What about the IC50 ([2]; Homo sapiens, 786-0, 72 h, 786O, kidney) of the same compound?
The IC50 was > 50000 nM.

What about the IC50 ([2]; Homo sapiens, A204, 72 h, A204, muscle) of the same compound?
Its IC50 is 270 nM.

What about the IC50 ([2]; Homo sapiens, A549, 72 h, A549, lung) of the same compound?
Its IC50 is 2060 nM.

What about the IC50 ([2]; Homo sapiens, A673, 72 h, A673, bone) of the same compound?
The IC50 was > 50000 nM.

What about the IC50 ([2]; Homo sapiens, A2780, 72 h, A2780, ovary) of the same compound?
Its IC50 is 15600 nM.

What about the IC50 ([2]; Homo sapiens, A-375, 72 h, A375, skin) of the same compound?
Its IC50 is 2350 nM.

What about the IC50 ([2]; Homo sapiens, A-431, 72 h, A431, skin) of the same compound?
The IC50 was 3030 nM.

And the IC50 ([2]; Homo sapiens, ACHN, kidney)?
Its IC50 is 1440 nM.

And the IC50 ([2]; Homo sapiens, ASPC1, 72 h, ASPC1, pancreas)?
Its IC50 is 1330 nM.

What about the IC50 ([2]; Homo sapiens, BT-20, 72 h, BT20, breast) of the same compound?
Its IC50 is > 50000 nM.

What about the IC50 ([2]; Homo sapiens, BXPC-3, 72 h, BXPC3, pancreas) of the same compound?
The IC50 was 1430 nM.

And the IC50 ([2]; Homo sapiens, C-33-A, C33A, endometrial)?
The IC50 was 2030 nM.

And the IC50 ([2]; Homo sapiens, CAKI-1, 72 h, CAKI1, kidney)?
Its IC50 is 1840 nM.

What about the IC50 ([2]; Homo sapiens, COLO 205, 72 h, COLO205, colon) of the same compound?
The IC50 was 1470 nM.

What about the IC50 ([2]; Homo sapiens, COLO-678, 72 h, COLO678, colon) of the same compound?
The IC50 was 4090 nM.

And the IC50 ([2]; Homo sapiens, Ca-Ski, CASKI, endometrial)?
The IC50 was > 50000 nM.

And the IC50 ([2]; Homo sapiens, Caco-2, 72 h, CACO2, colon)?
Its IC50 is > 50000 nM.

What about the IC50 ([2]; Homo sapiens, Calu-6, 72 h, CALU6, lung) of the same compound?
The IC50 was > 50000 nM.

And the IC50 ([2]; Homo sapiens, DLD-1, 72 h, DLD1, colon)?
Its IC50 is > 50000 nM.

What about the IC50 ([2]; Homo sapiens, DU-145, 72 h, DU145, prostate) of the same compound?
The IC50 was 4070 nM.

And the IC50 ([2]; Homo sapiens, EFO-21, 72 h, EFO21, ovary)?
Its IC50 is 4000 nM.

And the IC50 ([2]; Homo sapiens, EJ-28, 72 h, EJ28, bladder)?
Its IC50 is 6820 nM.

What about the IC50 ([2]; Homo sapiens, Granta-519, 72 h, GRANTA-519, hematological) of the same compound?
The IC50 was 2440 nM.

And the IC50 ([2]; Homo sapiens, HCT-15, 72 h, HCT15, colon)?
The IC50 was > 50000 nM.

What about the IC50 ([2]; Homo sapiens, HCT-116, 72 h, HCT116, colon) of the same compound?
Its IC50 is 3370 nM.

And the IC50 ([2]; Homo sapiens, HEK293, 72 h, HEK293, kidney)?
Its IC50 is 7690 nM.

What about the IC50 ([2]; Homo sapiens, HL-60, 72 h, HL-60, hematological) of the same compound?
Its IC50 is 2060 nM.

What about the IC50 ([2]; Homo sapiens, HT-29, 72 h, HT29, colon) of the same compound?
Its IC50 is 2280 nM.

And the IC50 ([2]; Homo sapiens, HT-1080, 72 h, HT1080, connective tissue)?
Its IC50 is 3880 nM.

What about the IC50 ([2]; Homo sapiens, HeLa, endometrial) of the same compound?
The IC50 was 1200 nM.

What about the IC50 ([2]; Homo sapiens, HepG2, 72 h, HEPG2, liver) of the same compound?
The IC50 was 1240 nM.

And the IC50 ([2]; Homo sapiens, Hs-578T, HS578T, breast)?
The IC50 was > 50000 nM.

And the IC50 ([2]; Homo sapiens, IGROV-1, 72 h, IGROV1, ovary)?
Its IC50 is 2760 nM.

What about the IC50 ([2]; Homo sapiens, IMR-90, 72 h, IMR90, lung) of the same compound?
Its IC50 is > 50000 nM.

What about the IC50 ([2]; Homo sapiens, JEG-3, 72 h, JEG3, placenta) of the same compound?
Its IC50 is > 50000 nM.

What about the IC50 ([2]; Homo sapiens, JIMT-1, 72 h, JIMT1, breast) of the same compound?
Its IC50 is 2040 nM.

And the IC50 ([2]; Homo sapiens, K562, 72 h, K-562, hematological)?
Its IC50 is > 50000 nM.

And the IC50 ([2]; Homo sapiens, Kasumi 1, 72 h, KASUMI-1, hematological)?
The IC50 was 100 nM.

What about the IC50 ([2]; Homo sapiens, L-363, 72 h, L-363, hematological) of the same compound?
Its IC50 is > 50000 nM.

What about the IC50 ([2]; Homo sapiens, LoVo, colon) of the same compound?
Its IC50 is 3100 nM.

What about the IC50 ([2]; Homo sapiens, MCF7, 72 h, MCF7, breast) of the same compound?
The IC50 was 5950 nM.

And the IC50 ([2]; Homo sapiens, MDA-MB-231, 72 h, MDAMB231, breast)?
Its IC50 is 1320 nM.

And the IC50 ([2]; Homo sapiens, MDA-MB-435, 72 h, MDAMB435, skin)?
The IC50 was > 50000 nM.

What about the IC50 ([2]; Homo sapiens, MDA-MB-436, 72 h, MDAMB436, breast) of the same compound?
Its IC50 is 1500 nM.

And the IC50 ([2]; Homo sapiens, MDA-MB-468, 72 h, MDAMB468, breast)?
The IC50 was > 50000 nM.

What about the IC50 ([2]; Homo sapiens, MG-63, 72 h, MG63, bone) of the same compound?
The IC50 was > 50000 nM.

And the IC50 ([2]; Homo sapiens, MHH-ES-1, 72 h, MHHES1, bone)?
The IC50 was > 50000 nM.

What about the IC50 ([2]; Homo sapiens, MIA PaCa-2, 72 h, MIAPACA2, pancreas) of the same compound?
The IC50 was 6240 nM.

And the IC50 ([2]; Homo sapiens, MINO, hematological)?
The IC50 was 460 nM.

What about the IC50 ([2]; Homo sapiens, MV4-11, 72 h, MV4-11, hematological) of the same compound?
The IC50 was 1020 nM.

And the IC50 ([2]; Homo sapiens, NCI-H23, 72 h, NCI-H23, lung)?
The IC50 was 4670 nM.

What about the IC50 ([2]; Homo sapiens, NCI-H82, 72 h, NCIH82, lung) of the same compound?
The IC50 was 15400 nM.

What about the IC50 ([2]; Homo sapiens, NCI-H292, 72 h, NCIH292, lung) of the same compound?
Its IC50 is 1070 nM.

And the IC50 ([2]; Homo sapiens, NCI-H460, 72 h, NCIH460, ung)?
Its IC50 is 1410 nM.

And the IC50 ([2]; Homo sapiens, OVCAR-3, 72 h, OVCAR3, ovary)?
Its IC50 is 760 nM.

What about the IC50 ([2]; Homo sapiens, OVCAR-4, 72 h, OVCAR4, ovary) of the same compound?
Its IC50 is > 50000 nM.

And the IC50 ([2]; Homo sapiens, PANC-1, 72 h, PANC1, pancreas)?
Its IC50 is > 50000 nM.

What about the IC50 ([2]; Homo sapiens, PLC-PRF-5, 72 h, PLCPRF5, liver) of the same compound?
The IC50 was 2100 nM.

What about the IC50 ([2]; Homo sapiens, Panc1005, 72 h, PANC1005, pancreas) of the same compound?
Its IC50 is 3080 nM.

What about the IC50 ([2]; Homo sapiens, Ramos, hematological) of the same compound?
The IC50 was 1170 nM.

And the IC50 ([2]; Homo sapiens, SAOS-2, 72 h, SAOS2, bone)?
The IC50 was 1660 nM.

And the IC50 ([2]; Homo sapiens, SF-268, 72 h, SF268, brain)?
Its IC50 is > 50000 nM.

What about the IC50 ([2]; Homo sapiens, SF-295, 72 h, SF295, brain) of the same compound?
Its IC50 is 7160 nM.

What about the IC50 ([2]; Homo sapiens, SK-BR-3, 72 h, SKBR3, breast) of the same compound?
Its IC50 is 4610 nM.

What about the IC50 ([2]; Homo sapiens, SK-HEP1, 72 h, SKHEP1, liver) of the same compound?
Its IC50 is 2290 nM.

What about the IC50 ([2]; Homo sapiens, SK-LMS-1, 72 h, SKLMS1, uterus) of the same compound?
The IC50 was 2380 nM.

What about the IC50 ([2]; Homo sapiens, SK-MEL-5, 72 h, SKMEL5, skin) of the same compound?
Its IC50 is > 50000 nM.

And the IC50 ([2]; Homo sapiens, SK-MEL-28, 72 h, SKMEL28, skin)?
The IC50 was 6060 nM.

What about the IC50 ([2]; Homo sapiens, SK-N-AS, SKNAS, brain) of the same compound?
The IC50 was 2440 nM.

And the IC50 ([2]; Homo sapiens, SK-N-SH, SKNSH, brain)?
The IC50 was 2290 nM.

What about the IC50 ([2]; Homo sapiens, SK-OV-3, 72 h, SKOV3, ovary) of the same compound?
Its IC50 is 2020 nM.

What about the IC50 ([2]; Homo sapiens, SNB-75, 72 h, SNB75, brain) of the same compound?
Its IC50 is 12800 nM.

What about the IC50 ([2]; Homo sapiens, SU-DHL10, 72 h, SU-DHL-10, hematological) of the same compound?
Its IC50 is 5600 nM.

What about the IC50 ([2]; Homo sapiens, SU-DHL-6, 72 h, SU-DHL-6, hematological) of the same compound?
The IC50 was 4190 nM.

And the IC50 ([2]; Homo sapiens, SW-620, 72 h, SW620, colon)?
Its IC50 is 1820 nM.

What about the IC50 ([2]; Homo sapiens, TE-671, 72 h, TE671, muscle) of the same compound?
Its IC50 is > 50000 nM.

What about the IC50 ([2]; Homo sapiens, THP-1, 72 h, THP-1, hematological) of the same compound?
The IC50 was 1970 nM.

And the IC50 ([2]; Homo sapiens, U2OS, bone)?
Its IC50 is > 50000 nM.

And the IC50 ([2]; Homo sapiens, U-87 MG, U87MG, brain)?
Its IC50 is 2380 nM.

And the IC50 ([2]; Homo sapiens, UMUC3, 72 h, UMUC3, bladder)?
Its IC50 is > 50000 nM.

What about the IC50 ([2]; Homo sapiens, UO-31, 72 h, UO31, kidney) of the same compound?
The IC50 was 3290 nM.

And the IC50 ([2]; Homo sapiens, WSU-NHL, hematological)?
The IC50 was 2770 nM.

And the IC50 ([2]; NCI-H358M, NCIH358M, lung)?
Its IC50 is 330 nM.

What about the IC50 ([2]; PBMC, hematological) of the same compound?
The IC50 was 190 nM.

What about the IC50 ([2]; RD-ES, RDES, bone) of the same compound?
The IC50 was 2480 nM.
